# Measured values from patent US5169852A, “Method of suppressing appetite by administration of tetrahydro-beta-carboline derivatives” (priority 1990, dated 1992).
# Entries after “also recorded” stand apart in the source; their conditions may differ. Where a name gives a salt, the structure may show the parent alone. Read-outs that look alike come from different tables or passages of the source.
# Columns and labels:
# [1] = Reduction of food intake in fasted rats, intraperitoneal (IC50 from dose-response curve); format: in vivo, rat; settings: ip
# Text: The measured food intake was plotted as a function of the natural logarithm of the drug concentration (ln(Dose)) given to the animal for each of the compounds listed above. A dose response curve of the functional form: Intake =α+(1-α)/[1+exp(β- ln(Dose))]was fit to each of the data sets using the NONLIN feature of the Systat™ statistical analysis software package for the Macintosh™ (Systat, Evanston, Il).
# [2] = tested on: brain imipramine binding sites; settings: cited from earlier work
# 5 HT efflux = settings: brain slices; cited from earlier work
# [3] = parenteral, rats; cited from earlier work
# [4] = tested on: brain tryptamine binding sites; settings: cited from earlier work
# [5] = tested on: 5-HT oxidative deamination; settings: cited from earlier work
# [6] = tested on: brain spiperone binding sites; settings: cited from earlier work
# [7] = cited from earlier work
# 5-HT uptake = settings: brain synaptosomes; cited from earlier work
# [8] = systemic, rodents; cited from earlier work
# [9] = Partial appetite suppression: food intake over one hour vs dose (FIG. 5); format: in vivo; settings: rat
# Procedure: Adult male rats weighing between 250 and 300 g were acclimated to laboratory conditions for a period of 4-5 days, during which they were allowed unrestricted access to food (Ralston-Purina #5001M) and water. All animals were housed in individual cages. The animal facility was maintained on a 12:12 hr light-dark schedule at 22° C.
# Fasted animals were sorted into groups of 10-12 each by weight and baseline food intake. Each was then given saline containing 0-32 mg/Kg of a compound of the invention (or THBC) by intraperitoneal injection. After 20 minutes, animals were allowed access to food and water. Cumulative food intake was measured at 1 hour post-injection.
# Reduction in food intake over one hour was measured against the dose per unit body weight for THBC and compound 14. The results are shown in FIG. 5A, which compares compound 14 with THBC.
# [10] = tested on: brain 5-hydroxytryptamine (5-HT) binding sites; settings: cited from earlier work
# [11] = rats; cited from earlier work
# [12] = cited from earlier work; remark: listed apart in the source
# [13] = cited from earlier work; for effect on feeding (hyperphagic / anorectic): S. Cooper
# [14] = human, in vivo; cited from earlier work
# benzodiazepine receptors = settings: Skolnick; Robertson; cited from earlier work
# [15] = rat, intraperitoneal, 1 hour food intake, Table 2, read-out: Activity LOG (IC50), reduction of food intake (converted)
# [16] = rat, intraperitoneal, 1 hour food intake, Table 3, read-out: Log (1/IC50) Measured (converted)
# [17] = Rattus norvegicus, 1 h, read-out: Activity LOG (IC50), reduction of food intake
# [18] = Rattus norvegicus, 1 h, read-out: Log (1/IC50) Measured
compound,measurement,setting,value
"CCCCCn1c2c(c3ccccc31)CCNC2 [Compound 23, 9-(n-pentyl)-1,2,3,4-tetrahydro-β-carboline hydrochloride]",ED50,[1]; [15],0.055 µmol/kg
same,ED50,[1]; [16],18.2 µmol/kg
O=C(O)C1Cc2c([nH]c3ccc(O)cc23)CN1 (stereo not shown) [Compound 15],ED50,[1]; [16],91.2 µmol/kg
O=Cn1c2c(c3ccccc31)CCNC2 [Compound 18],ED50,[1]; [16],91.2 µmol/kg
"Fc1ccc2c3c([nH]c2c1)CNCC3 [Compound 5, 7-fluoro-1,2,3,4-tetrahydro-β-carboline hydrochloride]",ED50,[1]; [17],0.0214 µmol/kg
same,ED50,[1]; [18],46.8 µmol/kg
Cc1cccc2[nH]c3c(c12)CCNC3 [Compound 17],ED50,[1]; [16],30.2 µmol/kg
"c1ccc2c3c([nH]c2c1)CNCC3 [Compound 1, 1,2,3,4-tetrahydro-β-carboline]",competition for brain imipramine binding sites,[2],low affinity
same,depolarization-induced 5 HT efflux,5 HT efflux,enhances
same,dose eliciting significant hypothermia,[3],≥ 6.25 mg/kg
same,competition for brain tryptamine binding sites,[4],low affinity
same,inhibition of 5-HT oxidative deamination,[5],weakly inhibits
same,competition for brain spiperone binding sites,[6],low affinity
same,behavioral syndrome at high doses,[7]; high doses,"hyperactivity, forepaw treating, body weaving, and circling"
same,behavioral effects,[7]; parenteral,"suppresses locomotion, exploratory activity, and conflict behavior, impairs performance on operantly conditioned learning and memory tasks, reduces seizure susceptibility, prolongs barbiturate sedation, and antagonizes specific drug induced stereotypic behavior"
same,inhibition of 5-HT uptake,5-HT uptake,weakly inhibits
same,plasma corticosterone,[8],elevated
same,plasma prolactin levels,[8],dose-dependent elevation
same,serum luteinizing hormone levels,[8],decreased
same,feeding depression / dose-response behavior,[9],"little feeding depression at low dosage, but relatively complete feeding depression at higher dosage"
same,competition for brain 5-HT binding sites,[10],low affinity
same,"behavioral effects, intraventricular",[11],"reduce motor activity, induce apparent anxiety, and increase voluntary ethanol consumption"
same,ED50,[1]; [17],0.0145 µmol/kg
same,ED50,[1]; [18],69.2 µmol/kg
same,deaths,[12]; 49 mg/Kg/day or greater,6 out of the 24
same,treatment day by which food consumption returns to normal (tolerance),"[12]; daily oral, in excess of 49 mg/Kg",twelfth
same,"appetite, smaller daily doses","[12]; daily oral, less than 30 mg/Kg",do not significantly alter appetite
same,"food intake, daily oral administration","[12]; in excess of 49 mg/Kg daily, after two consecutive days",significant reductions in food intake
"O=C(O)C1Cc2c([nH]c3ccccc23)CN1 (racemic) [Compound 14, (±) 3-carboxyl-1,2,3,4-tetrahydro-β-carboline]",feeding depression / dose-response behavior,[9],will not depress feeding behavior over a comparatively large feeding range; also recorded: moderate feeding depression over a broad dosage range
same,ED50,[1]; [15],0.0331 µmol/kg
same,ED50,[1]; [16],30.2 µmol/kg
"c1ccc(Cn2c3c(c4ccccc42)CCNC3)cc1 [Compound 19, 9 benzyl-1,2,3,4-tetrahydro-β-carboline hydro-chloride]",ED50,[1]; [15],0.0447 µmol/kg
same,ED50,[1]; [16],22.4 µmol/kg
"CCn1c2c(c3ccccc31)CCNC2 [Compound 20, 9-ethyl-1,2,3,4-tetrahydro-β-carboline hydrochloride]",ED50,[1]; [15],0.0309 µmol/kg
same,ED50,[1]; [16],32.4 µmol/kg
Cc1ccc2[nH]c3c(c2c1)CCNC3 [Compound 12],ED50,[1]; [16],30.9 µmol/kg
"CCCCCn1c2c(c3cc(C)ccc31)CCNC2 [Compound 21, 6-Methyl-9-(n-pentyl)-1,2,3,4-tetrahydro-β-carboline hydrochloride]",ED50,[1]; [15],0.0589 µmol/kg
same,ED50,[1]; [16],17 µmol/kg
"Cc1cccc2c3c([nH]c12)CNCC3 [Compound 10, 8-methyl-1,2,3,4-tetrahydro-β-carboline hydrochloride]",ED50,[1]; [15],0.0162 µmol/kg
same,ED50,[1]; [16],61.7 µmol/kg
CCOC(=O)c1ncc2[nH]c3cccc(OCc4ccccc4)c3c2c1COC [ethyl-5-benzyloxy-4-methoxymethyl β-carboline-3-carboxylate],effect on feeding (hyperphagic / anorectic),[13],hyperphagic
CCC1Cc2c([nH]c3ccccc23)CN1 (stereo not shown) [Compound 13],ED50,[1]; [16],77.6 µmol/kg
CCNC(C)Cc1cccc(C(F)(F)F)c1 (stereo not shown) [fenfluramine],clinical efficacy,[14],inadequate clinical efficacy
same,patient complaints (side effects),[14],drowsiness and headache
CC1NCCc2c1[nH]c1ccccc21 (stereo not shown) [Compound 7],ED50,[1]; [18],100 µmol/kg
"Clc1ccc2[nH]c3c(c2c1)CCNC3 [Compound 8, 6-chloro-1,2,3,4-tetrahydro-β-carboline hydrochloride]",ED50,[1]; [17],0.0347 µmol/kg
same,ED50,[1]; [18],28.8 µmol/kg
"CC(=O)N1CCc2c([nH]c3ccccc23)C1 [Compound 16, 2-acetyl-1,2,3,4-tetrahydro-β-carboline]",feeding depression / dose-response behavior,[9],The same behavior was observed
same,ED50,[1]; [15],0.0162 µmol/kg
same,ED50,[1]; [16],61.7 µmol/kg
CNC(=O)c1cc2c(cn1)[nH]c1ccccc12 [β-carboline-3-carboxylic acid methyl amide],food consumption by partially sated rats,"[13]; 10.0 mg/Kg, intraperitoneal",30 % of control
same,effect on feeding (hyperphagic / anorectic),[13],anorectic
CCOC(=O)c1ncc2[nH]c3ccc(OCc4ccccc4)cc3c2c1COC [ethyl 6-benzyloxy-4-meth-oxymethyl-β-carboline-3-carboxylate],effect on feeding (hyperphagic / anorectic),[13],hyperphagic
"CC(=O)N1CCc2c(n(Cc3ccccc3)c3ccccc23)C1 [Compound 27, 2 acetyl-9 benzyl-1,2,3,4-tetrahydro-β-carboline]",ED50,[1]; [15],0.0339 µmol/kg
same,ED50,[1]; [16],29.5 µmol/kg
ethyl -isopropoxy-4-methyl-β-carboline-3-carboxylate,effect on feeding (hyperphagic / anorectic),[13],hyperphagic
"Fc1ccc2[nH]c3c(c2c1)CCNC3 [Compound 4, 6-fluoro-1,2,3,4 tetrahydro-β-carboline hydrochloride]",ED50,[1]; [17],0.0257 µmol/kg
same,ED50,[1]; [18],38.9 µmol/kg
"COC(=O)C1Cc2c([nH]c3ccccc23)CN1 (stereo not drawn) [3-carbomethoxy-1,2,3,4-tetrahydro-β-carboline]",binding affinity to benzodiazepine receptors,benzodiazepine receptors,very low affinity
"COc1ccc2[nH]c3c(c2c1)CCNC3 [Compound 2, 6-methoxy-1,2,3,4-tetrahydro-β-carboline]",ED50,[1]; [17],0.0162 µmol/kg
same,ED50,[1]; [18],61.7 µmol/kg
